Among the data in patent US4075409A, “Benzophenone derivatives” (Cassella Farbwerke Mainkur Aktiengesellschaft, priority 1973, dated 1978) are responders and LD50 values, retold here.

Broadly, the LD50 is the dose at which mortality reaches 50%.

Data set [1] deals with albino mice. As to the kind of experiment: climbing test, central depressant (sedative) action on albino mice. The class given is in vivo. To be noted: Mus musculus, po, read-out: Central depressant action in % (percentage of animals which no longer embark on the climbing work); for responders at 8 mg/kg: 8.0 mg/kg orally. The method, then: The pharmacological examination of the central depressant (sedative) action was carried out on albino mice with the aid of the climbing test described by P. K. KNEIP: Arch. int. pharmacodyn 126, 238 (1960) and R. DOMENJOZ and W. THEOBALD: Arch. int. pharmacodyn 120, 450 (1959).
In the final column of the table, the percentage of the experimental animals which no longer embark on the climbing work, which is normally readily undertaken, is given under the heading "Central depressant action in %".
(§1) The benzophenone derivatives were tested in the form of their hydrochlorides.

Data set [2] is described as follows: LD50 mice intraperitoneally. To be noted: mouse, in vivo, ip, benzophenones as hydrochlorides. The method, then: as §1

Where a name gives a salt, the structure may show the parent alone.

On to `CC(Cc1ccccc1)NCC(=O)N(C)c1ccc([N+](=O)[O-])cc1C(=O)c1ccccc1` (racemic) [DL-2-(5-Phenyl-N-methyl-4-methyl-3-aza-pentanamido)-5-nitrobenzophenone hydrochloride], for which the responders at 8 mg/kg in data set [1] (as hydrochloride) came to 50%. In addition, the LD50 in data set [2] is 44 mg/kg. With `CCOC(=O)NCC(=O)N(C)c1ccc(Cl)cc1C(=O)c1ccccc1.Cl` [2-(3-ethoxycarbonyl-N-methyl-3-aza-propanamido)-5-chlorobenzophenone hydrochloride], the responders at 4 mg/kg in data set [1] (4.0 mg/kg orally, as hydrochloride) turned out to be 30%. The compound also returned an LD50 in data set [2] of 270 mg/kg. With `CCOC(=O)NCC(=O)N(C)c1ccc([N+](=O)[O-])cc1C(=O)c1ccccc1` [2-(3-Ethoxycarbonyl)-N-methyl-3-aza-propanamido)-5-nitro-benzophenone], the responders at 10 mg/kg in data set [1] (10.0 mg/kg orally, as hydrochloride) stood at 70%. In addition, the median lethal dose (LD50) in data set [2] came to 500 mg/kg. As to `CN(CC(=O)Nc1ccc(Cl)cc1C(=O)c1ccccc1)C(=S)Nc1ccccc1` [2-(3-Phenylaminothiocarbonyl-3-aza-3-methyl-propanamido)-5-chlorobenzophenone], the responders at 8 mg/kg in data set [1] (as hydrochloride) was determined as 50%. For the same compound, the LD50 in data set [2] is above 1000 mg/kg. Take `CC(Cc1ccccc1)NCC(=O)N(C)c1ccc(Cl)cc1C(=O)c1ccccc1Cl` (racemic) [DL-2-(5-phenyl-N-methyl-4-methyl-3-aza-pentanamido)-2',5-dichlorobenzophenone hydrochloride]: in data set [1] (as hydrochloride), the responders at 8 mg/kg came to 70%. In data set [2], the LD50 was 24 mg/kg. Consider `CCCCNC(=O)CCN(CCCC)CC(=O)N(C)c1ccc([N+](=O)[O-])cc1C(=O)c1ccccc1` [2-(5-n-Butylaminocarbonyl-N-methyl-3-n-butyl-3-aza-pentanamido)-5-nitro-benzophenone], for which the responders at 8 mg/kg in data set [1] (as hydrochloride) is 50%. The compound also registered a 50% lethal dose (LD50) in data set [2] of 500 mg/kg.

For the compound `CCOC(=O)NCC(=O)N(C)c1ccc(Cl)cc1C(=O)c1ccccc1Cl` [2-(3-Ethoxycarbonyl-N-methyl-3-aza-propanamido)-2',5-dichlorobenzophenone], in data set [1] (as hydrochloride), the responders at 8 mg/kg was found to be 90%. In data set [2], this compound had a 50% lethal dose (LD50) of 240 mg/kg. For the compound `CCCC(C)(COC(N)=O)COC(N)=O` [Meprobamate, reference compound], the responders at 70 mg/kg in data set [1] (70 mg/kg orally, comparison preparation) amounted to 50%. For `CC(Cc1ccccc1)NCC(=O)N(C)c1ccc(Cl)cc1C(=O)c1ccccc1` (racemic) [DL-2-(5-phenyl-N-methyl-4-methyl-3-aza-pentanamido)-5-chlorobenzophenone hydrochloride], the responders at 8 mg/kg in data set [1] (as hydrochloride) was 40%. In data set [2], this compound gave an LD50 of 240 mg/kg.
